From patent publication US20030219866A1, “Stem cell-like cells” (priority 2000, published 2003) come the findings set out here.

Type in all cases: cell-based
Assay [1] has as its system TSA treated cells. Description: UTF1 expression and TGF-beta/activin/BMP responsiveness of TSA treated cells.
In assay [2] the test system is mouse Neural Progenitor Cells. As to the kind of experiment: OCT4 expression after TSA treatment in mNPC (RT-PCR). Details: key to OCT4 expression: +/− expression detectable; (+) clear expression; (++ strong expression). To be noted: for OCT4 expression: mNPC (eGFP/bcl2), RT-PCR. As for the experimental part: (§1) (a) RNA isolation and eDNA synthesis. At the time of harvest, medium was aspirated and cells were lyzed using Ultraspec™ (Biotecx) or Trizol® (Gibco BRL). RNA was isolated according to the instructions of the suppliers. RNA concentration was determined by measuring OD260 and equal amounts of RNA of the indicated cell lines were subjected to conversion into cDNA. RNA was reversed transcribed using random primers and 15 units M-MuLV (Promega) in a reaction mixture containing 4 μl 25 mM MgCl2, 2 μl of each of the four dNTPs at 10 mM and 0.5 μl RNasin (Promega) in a total volume of 20 μl. RNA and 0.5 μg random hexamers were pre-incubated for 10 minutes at 55-60°. Mixtures were incubated at 37° C. for 1 hour.
(§2) (b) PCR reactions. PCR was were performed using 2 μl cDNA, 2.5 μl 10× SuperTaq buffer (without magnesium), 0.25 μl forward primer, 0.25 μl reverse primer, 0.50 μl 10 mM dNTPs, 1.25 Units of SuperTaq polymerase. In the case of β2-microglobulin 1.5 mM MgCl2 was added to the reaction mixture. For mouse UTF1 PCR, normal Taq polymerase (Roche) was used with a buffer containing MgCl2. The conditions for the PCR reaction were: 5 minutes 94° C.; 28 cycles of 30 seconds 94° C., 30 seconds 60° C. and 30 seconds 72° C.; 10 minutes 72° C., using a PTC-200, Peltier Thermal cycler. PCR-fragments were run on a 2% agarose gel and visualized by ethidium bromide staining.
(§3) HDAC activity is inhibited by Trichostatin A (TSA). Human mesenchymal stem cells and mouse and human neuronal progenitor cells were treated by TSA at concentration of 10 and 50 ng/ml. After 24 and 48 hours, OCT4 expression was analyzed by RT-PCR.

For assay [3], the system named is human Mesenchymal Stem Cells. As to the kind of experiment: OCT4 expression after TSA treatment in hMSC (RT-PCR). Details: key to OCT4 expression: +/− expression detectable; (+) clear expression; (++ strong expression). As to conditions: for OCT4 expression: hMSC, RT-PCR. Here is the method: as §1, §2, §3
Assay [4] has as its system human Neural Progenitor Cells. As to the kind of experiment: OCT4 expression after TSA treatment in hNPC (RT-PCR). To be noted: for OCT4 expression: hNPC, RT-PCR. Details: key to OCT4 expression: +/− expression detectable; (+) clear expression; (++ strong expression). Here is the method:
as §1, §2, §3

On to `CC(/C=C/C(=O)NO)=C\[C@@H](C)C(=O)c1ccc(N(C)C)cc1` [TSA, Trichostatin A], for which the “TGF-beta, activin and BMP responsiveness” value in assay [1] is “reduction”. Besides, the “expression of UTF1” value in assay [1] is recorded as “increased”. For the same molecule, the OCT4 expression entry in assay [2] (TSA 10 ng/ml, 24 hours) was “+”; in assay [2] (TSA 10 ng/ml, 48 hours), “++”; in assay [2] (TSA 50 ng/ml, 24 hours), “+”; in assay [3] (TSA 10 ng/ml, 24 hours) it was “+”; in assay [3] (TSA 10 ng/ml, 48 hours), “++”; in assay [3] (TSA 50 ng/ml, 24 hours) it was “+”. The OCT4 expression entry in assay [3] (TSA 50 ng/ml, 48 hours) is on record as “++”; in assay [4] (TSA 10 ng/ml, 24 hours) it was “+”; in assay [4] (TSA 10 ng/ml, 48 hours) it was “++”; in assay [4] (TSA 50 ng/ml, 24 hours), “+”. For the same molecule, the “expression of OCT4” value is listed as “enhances” in assay [2] (mouse neural progenitor cells, TSA treatment for 24 to 48 hours); “enhances” in assay [3] (human MSC, TSA treatment for 24 to 48 hours); “enhances” in assay [4] (human Neural Progenitor Cells, TSA treatment for 24 to 48 hours). The SSEA4 expression result in assay [3] (human MSC, TSA treated, in parallel with upregulation of OCT4) is recorded as “increased”; in assay [4] (human Neural Progenitor Cells, TSA treated, in parallel with upregulation of OCT4) it was “increased”.
